Laboratory results: ChEMBL document CHEMBL4765487, “From a Designer Drug to the Discovery of Selective Cannabinoid Type 2 Receptor Agonists with Favorable Pharmacokinetic Profiles for the Treatment of Systemic Sclerosis” (J Med Chem, 2021)
Active and inactive are the calls of the source. The rule behind the calls is not given here.

Experiments:
Homo sapiens = species: Homo sapiens; test: Selectivity index, ratio of EC50 for agonist activity at human CB1 receptor expressing CHO cells co-expressing Galpha16 by calcium mobilization assay to EC50 for agonist activity at human CB2 receptor expressing CHO cells co-expressing Galpha16 by calcium mobilization assay
Cannabinoid receptor 1 = Cannabinoid receptor 1 (Homo sapiens, UniProt P21554); test: Agonist activity at human CB1 receptor expressing CHO cells co-expressing Galpha16 by calcium mobilization assay relative to CP55940; format: functional, cell-based
Sequence of Cannabinoid receptor 1 (P21554 whole entry): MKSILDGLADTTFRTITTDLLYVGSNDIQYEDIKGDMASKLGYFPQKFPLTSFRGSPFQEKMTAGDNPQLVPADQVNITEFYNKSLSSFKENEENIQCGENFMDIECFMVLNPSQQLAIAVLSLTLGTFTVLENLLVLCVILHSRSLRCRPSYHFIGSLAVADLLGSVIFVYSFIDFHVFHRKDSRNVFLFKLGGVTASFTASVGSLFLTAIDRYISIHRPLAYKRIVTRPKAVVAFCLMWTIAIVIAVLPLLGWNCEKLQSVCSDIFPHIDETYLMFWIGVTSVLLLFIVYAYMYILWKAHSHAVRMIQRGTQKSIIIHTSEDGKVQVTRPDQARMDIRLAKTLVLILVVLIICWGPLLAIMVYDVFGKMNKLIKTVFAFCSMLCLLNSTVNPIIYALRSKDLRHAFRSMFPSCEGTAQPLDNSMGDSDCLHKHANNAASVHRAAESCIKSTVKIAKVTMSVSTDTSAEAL

Cannabinoid receptor 2 [1] = target: T1, Cannabinoid receptor 2 (Homo sapiens, UniProt P34972); test: Agonist activity at human CB2 receptor expressing CHO cells co-expressing Galpha16 by calcium mobilization assay relative to CP55940; format: functional, cell-based; settings: filed as agonist
T1 sequence (P34972 whole entry): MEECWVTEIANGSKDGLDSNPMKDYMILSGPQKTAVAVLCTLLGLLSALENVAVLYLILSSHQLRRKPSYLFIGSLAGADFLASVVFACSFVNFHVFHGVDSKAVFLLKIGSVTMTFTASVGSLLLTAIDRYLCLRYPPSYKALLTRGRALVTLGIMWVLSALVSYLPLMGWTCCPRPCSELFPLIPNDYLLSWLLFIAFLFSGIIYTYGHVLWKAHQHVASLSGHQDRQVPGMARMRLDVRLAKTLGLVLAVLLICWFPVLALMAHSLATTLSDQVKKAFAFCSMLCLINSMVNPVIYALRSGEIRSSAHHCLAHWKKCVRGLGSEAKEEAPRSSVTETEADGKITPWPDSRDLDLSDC

Cannabinoid receptor 2 [2] = target: T1, Cannabinoid receptor 2; test: Agonist activity at human CB2 receptor expressing CHO cells co-expressing Galpha16 in presence of CB2 antagonist AM630 by calcium mobilization assay; format: functional, cell-based
[3] = Cmax in BALB/c mouse at 1 mg/kg, iv measured during 0.083 to 24 hrs post dose by LC-MS/MS analysis; format: ADME, organism-based; design: route intravenous, time upper 24 hrs, dose 1 mg/kg, time lower 0.083 hrs; settings: in vivo
[4] = Cmax in BALB/c mouse at 5 mg/kg, po measured during 0.083 to 24 hrs post dose by LC-MS/MS analysis; format: ADME, organism-based; design: route oral, time 0.083-24 hrs, dose 5 mg/kg; settings: in vivo
[5] = Volume of distribution in BALB/c mouse at 1 mg/kg, iv measured during 0.083 to 24 hrs post dose by LC-MS/MS analysis; format: ADME, organism-based; settings: in vivo, time 0.083-24 hrs
[6] = Clearance in BALB/c mouse at 1 mg/kg, iv measured during 0.083 to 24 hrs post dose by LC-MS/MS analysis; format: ADME, organism-based; settings: in vivo, time 0.083-24 hrs
[7] = Clearance in BALB/c mouse at 5 mg/kg, po measured during 0.083 to 24 hrs post dose by LC-MS/MS analysis; format: ADME, organism-based; settings: in vivo, time 0.083-24 hrs
[8] = Half life in BALB/c mouse at 1 mg/kg, iv measured during 0.083 to 24 hrs post dose by LC-MS/MS analysis; format: ADME, organism-based; settings: in vivo, time 0.083-24 hrs
[9] = Oral bioavailability in BALB/c mouse at 5 mg/kg measured during 0.083 to 24 hrs post dose by LC-MS/MS analysis; format: ADME, organism-based; settings: in vivo, time 0.083-24 hrs
Cannabinoid receptor 2 [10] = target: T1, Cannabinoid receptor 2; test: Agonist activity at human CB2 receptor expressed in HEK293 cells assessed as inhibition of forskolin-induced cAMP production incubated for 15 mins by cAMP HTRF assay; format: functional, cell-based
Cannabinoid receptor 2 [11] = target: T1, Cannabinoid receptor 2; test: Agonist activity at human CB2 receptor expressed in CHO cells assessed as increase in ERK1/2 Thr202/Tyr204 phosphorylation at 0.1 to 10 uM incubated for 15 mins by Western blot analysis; format: cell-based; settings: filed as agonist, dose 0.1-10 µM
CHO = test: Effect on ERK1/2 Thr202/Tyr204 phosphorylation in CHO cells at 0.1 to 10 uM incubated for 15 mins by Western blot analysis; format: functional, cell-based; settings: Cricetulus griseus, dose 0.1-10 µM
Cannabinoid receptor 2 [12] = target: T1, Cannabinoid receptor 2; test: Agonist activity at human CB2 receptor expressed in CHO cells assessed as increase in ERK1/2 Thr202/Tyr204 phosphorylation at 10 uM incubated for 15 mins in presence of CB2 antagonist AM630 by Western blot analysis; format: cell-based
[13] = target: T2, Glucose-dependent insulinotropic receptor (Homo sapiens) (UniProt Q8TDV5); test: Agonist activity at GPR119 (unknown origin) at 10 uM
T2 sequence (whole entry): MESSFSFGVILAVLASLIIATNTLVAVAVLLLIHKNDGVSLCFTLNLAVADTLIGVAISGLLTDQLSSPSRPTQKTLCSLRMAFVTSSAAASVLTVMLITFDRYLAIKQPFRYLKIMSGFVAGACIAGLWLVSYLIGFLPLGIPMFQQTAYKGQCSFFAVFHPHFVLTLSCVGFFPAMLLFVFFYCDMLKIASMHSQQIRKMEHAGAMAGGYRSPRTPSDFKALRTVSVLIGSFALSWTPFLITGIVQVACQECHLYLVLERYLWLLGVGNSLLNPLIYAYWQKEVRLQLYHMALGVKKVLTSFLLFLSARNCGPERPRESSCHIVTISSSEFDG

[14] = target: T3, Probable G-protein coupled receptor 132 (Homo sapiens) (UniProt Q9UNW8); test: Agonist activity at GPR132 (unknown origin) at 10 uM
T3 sequence (whole entry): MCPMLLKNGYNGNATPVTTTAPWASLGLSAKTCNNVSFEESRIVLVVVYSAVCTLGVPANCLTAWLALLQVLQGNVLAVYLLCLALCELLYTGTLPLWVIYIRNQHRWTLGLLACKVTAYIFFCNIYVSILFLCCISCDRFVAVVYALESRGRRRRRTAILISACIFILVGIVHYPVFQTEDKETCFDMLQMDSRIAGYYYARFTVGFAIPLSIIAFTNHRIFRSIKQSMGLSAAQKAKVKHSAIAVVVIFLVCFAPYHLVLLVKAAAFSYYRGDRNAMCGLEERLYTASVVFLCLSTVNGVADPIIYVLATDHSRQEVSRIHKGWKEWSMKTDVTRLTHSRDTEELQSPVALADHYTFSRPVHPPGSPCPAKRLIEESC

[15] = target: T3, Probable G-protein coupled receptor 132 (Homo sapiens); test: Antagonist activity at GPR132 (unknown origin) at 10 uM
[16] = target: Prostaglandin E2 receptor EP4 subtype (Homo sapiens) (UniProt P35408); test: Agonist activity at EP2 (unknown origin) at 10 uM
Sequence of Prostaglandin E2 receptor EP4 subtype (Homo sapiens) (P35408 whole entry): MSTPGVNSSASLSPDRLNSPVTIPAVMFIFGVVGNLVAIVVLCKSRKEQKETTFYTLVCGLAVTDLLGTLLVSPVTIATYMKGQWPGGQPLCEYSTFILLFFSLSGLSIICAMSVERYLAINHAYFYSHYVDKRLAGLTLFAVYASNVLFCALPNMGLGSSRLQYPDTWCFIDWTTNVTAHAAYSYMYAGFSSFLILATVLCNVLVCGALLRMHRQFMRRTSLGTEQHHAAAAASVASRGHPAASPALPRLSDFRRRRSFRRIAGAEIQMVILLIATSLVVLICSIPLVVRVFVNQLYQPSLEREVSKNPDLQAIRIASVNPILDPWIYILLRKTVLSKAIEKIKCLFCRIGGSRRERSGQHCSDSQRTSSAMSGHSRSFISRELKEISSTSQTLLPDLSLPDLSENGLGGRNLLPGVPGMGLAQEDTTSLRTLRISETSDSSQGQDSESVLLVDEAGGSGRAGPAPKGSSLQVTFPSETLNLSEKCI

[17] = target: Prostaglandin E2 receptor EP4 subtype (Homo sapiens) (UniProt P35408); test: Antagonist activity at EP4 (unknown origin) at 10 uM
Mus musculus [18] = test: Antifibrotic activity in BALB/c mouse model of BLM-induced systemic sclerosis assessed as reduction in skin thickness at 5 mg/kg, sc dosed once daily for 4 weeks by H and E staining based analysis; format: functional, organism-based
[19] = Toxicity in BALB/c mouse model of BLM-induced systemic sclerosis assessed as effect on body weight at 1 to 5 mg/kg, sc dosed once daily for 4 weeks; format: organism-based; settings: in vivo, 672 h, dose 1-5 mg/kg
Mus musculus [20] = test: Antifibrotic activity in BALB/c mouse model of BLM-induced systemic sclerosis assessed as reduction in Col1alpha mRNA expression at 1 to 5 mg/kg, sc dosed once daily for 4 weeks by quantitative real-time PCR analysis; format: functional, organism-based; settings: dose 1-5 mg/kg
Mus musculus [21] = test: Antifibrotic activity in BALB/c mouse model of BLM-induced systemic sclerosis assessed as reduction in alpha-SMA mRNA expression at 1 to 5 mg/kg, sc dosed once daily for 4 weeks by quantitative real-time PCR analysis; format: functional, organism-based; settings: dose 1-5 mg/kg
Mus musculus [22] = test: Antifibrotic activity in BALB/c mouse model of BLM-induced systemic sclerosis assessed as reduction in TNF-alpha mRNA expression at 1 to 5 mg/kg, sc dosed once daily for 4 weeks by quantitative real-time PCR analysis; format: functional, organism-based; settings: dose 1-5 mg/kg
Mus musculus [23] = test: Antifibrotic activity in BALB/c mouse model of BLM-induced systemic sclerosis assessed as reduction in TGF-beta mRNA expression at 1 to 5 mg/kg, sc dosed once daily for 4 weeks by quantitative real-time PCR analysis; format: functional, organism-based; settings: dose 1-5 mg/kg
in vitro [24] = settings: human, liver microsomes
Description: Half life in human liver microsomes at 1 uM in presence of NADPH by LC-MS/MS analysis

in vitro [25] = settings: human, liver microsomes; remark: listed apart in the source
in vitro [26] = settings: human, liver
in vitro [27] = settings: human, liver microsomes; remark: listed apart in the source
Description: Stability in human liver microsomes assessed as parent compound remaining at 1 uM incubated for 60 mins in presence of NADPH by LC-MS/MS analysis

With `CC(C)(CO)NC(=O)c1cc(C(C)(C)C)n(-c2ccc(C(F)(F)F)cn2)n1` the Ratio EC50 (Homo sapiens) was > 100, the Emax (Cannabinoid receptor 1) was 30% and the Emax (Cannabinoid receptor 2 [1]) was 100%. For the same molecule, the Activity (Cannabinoid receptor 2 [2]) was “inactive”, the Cmax [3] was 959 ng/mL and the Cmax [4] was 603 ng/mL. It also gave a Vd [5] of 4.5 L/kg, a clearance [6] of 40 mL/min/kg and a CL/F [7] of 51.7 mL/min/kg. The half-life [8] was 1.32 h, the bioavailability [9] was 79.5% and the EC50 (Cannabinoid receptor 2 [10]) was 10.7 nM. The Activity (Cannabinoid receptor 2 [11]) was “Active”, the Activity (CHO) was “inactive” and the Activity (Cannabinoid receptor 2 [12]) was “inactive”. For the same molecule, the Activity [13] was “inactive”, the Activity [14] was “inactive” and the Activity [15] was “inactive”. The Activity [16] was “inactive”, the Activity [17] was “inactive” and the Activity (Mus musculus [18]) was “Active”. For the same molecule, the Activity [19] was “Non-Toxic”, the Activity (Mus musculus [20]) was “Active” and the Activity (Mus musculus [21]) was “Active”. The Activity (Mus musculus [22]) was “Active”, the Activity (Mus musculus [23]) was “Active” and the half-life at 1 µM (in vitro [24]) was 1.88 h. The microsomal CLint at 1 µM (in vitro [25]) was 12.3 µL/min/mg, the CLint scaled at 1 µM (in vitro [26]) was 11.1 mL/min/kg and the remaining at 1 h, 1 µM (in vitro [27]) was 64%.
